# In US8691815B2, “Substituted oxindole derivatives, drugs containing said derivatives and the use thereof” (AbbVie Deutschland GmbH & Co. KG, priority 2005, dated 2014):
# Where a name gives a salt, the structure may show the parent alone.
# Target: T1, human V1b receptor (Homo sapiens, UniProt P47901)
# T1 construct: expressed in transfected cells; host or cells: CHO-K1
# T1 sequence (P47901 1-424): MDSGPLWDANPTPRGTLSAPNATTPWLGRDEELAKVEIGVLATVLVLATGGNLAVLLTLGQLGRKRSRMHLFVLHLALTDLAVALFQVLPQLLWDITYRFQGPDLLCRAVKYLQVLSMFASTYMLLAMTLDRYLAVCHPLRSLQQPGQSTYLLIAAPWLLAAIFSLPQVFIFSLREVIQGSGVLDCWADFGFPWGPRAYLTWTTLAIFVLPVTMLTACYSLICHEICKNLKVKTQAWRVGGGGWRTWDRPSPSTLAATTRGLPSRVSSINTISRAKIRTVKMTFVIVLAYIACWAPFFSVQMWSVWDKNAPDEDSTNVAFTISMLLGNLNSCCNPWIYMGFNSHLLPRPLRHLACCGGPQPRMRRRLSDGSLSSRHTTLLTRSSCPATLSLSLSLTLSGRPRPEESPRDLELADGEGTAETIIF
# Assay: Effect on vasopressin-induced calcium increase in cells having a cloned human vasopressin receptor
# Type: cell-based
# Conditions: CHO-K1 cells stably transfected with human V1b receptor, Arg-vasopressin 10^-8 M, FLIPR calcium
# Description: Effect on Vasopressin-induced Calcium Increase in Cells Having a Cloned Human Vasopressin Receptor The functional activity of the test substances was investigated on CHO-K1 cells which were stably transfected with the human V1b receptor. 50 000 cells were seeded in each well of a microtiter plate with 96 wells and incubated in culture medium in a saturated water vapor atmosphere with 5% CO2 at 37° C. overnight. The culture medium consisted of DMEM/Nut Mix F12 with Glutamax I (from Invitrogen), 10% fetal calf serum, 100 units/ml penicillin, 100 μg/ml streptomycin and 800 μg/ml Geneticin. The following day, the cells were washed with culture medium and loaded with a fluorescent dye for calcium in accordance with the manufacturer's statements (Ca^++-Plus-Assay Kit, Molecular Devices). The cells were loaded in the presence of probenzide (1 vol %). The test substances were diluted with culture medium (final concentration 10^−10 to 10^−5M) and incubated with the dye-loaded cells at room temperature for 15 minutes. The Arg-vasopressin (10^−8M) was then added and the maximum fluorescence signal was determined using a FLIPR-96 measuring instrument (Molecular Devices). Concentration-effect plots were constructed using nonlinear regression algorithms (GraphPad Prism 3.0). Kb values were calculated from IC50 values by the method of Cheng and Prusoff (Kb=IC50/1+L/EC50).
row,functional antagonist of the human vasopressin V1b receptor,Compound
1,functional antagonist,"COc1ccc(S(=O)(=O)N2C(=O)C(c3ccc(CN4CCCC4)cc3OC)(N3CCC[C@H]3C(=O)N(C)C)c3cc(Cl)ccc32)cc1 (single isomer, unassigned) [Example 2]"

# Target: T2, human vasopressin V1b receptor (Homo sapiens, UniProt P47901)
# T2 construct: expressed in transfected cells; host or cells: CHO-K1 (cell line hV1b-3H2_CHO), membrane preparation
# T2 sequence (P47901 1-424): T1 sequence (P47901 1-424)
# Assay: Vasopressin V1b receptor binding assay
# Conditions: membranes from CHO-K1 cells with stably expressed human V1b receptors, displacement of 1.5 nM 3H-AVP
# Procedure, shortened: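 Membranes were incubated with radioligand for 60 min at room temperature in 50 mM Tris, 10 mM MgCl2, 0.1% BSA, pH 7.4, with 2% DMSO final. Nonspecific binding was defined with 1 uM AVP. Bound ligand was collected by GF/B filtration and counted by scintillation, and binding parameters were derived by nonlinear regression.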
row,Compound,Ki [nM]
1,"COc1ccc(S(=O)(=O)N2C(=O)C(c3ccc(CN4CCCC4)cc3OC)(N3CCC[C@H]3C(=O)N(C)C)c3cc(Cl)ccc32)cc1 (single isomer, unassigned) [Example 2]",< 1
2,"COc1ccc(CNC(C)C)cc1C1(N2CCC[C@H]2C(=O)N(C)C)C(=O)N(S(=O)(=O)c2ccc(C#N)cc2)c2ccc(Cl)cc21 (stereo partly drawn) [Example 101, (S)-1-[5-Chloro-1-(4-cyanobenzenesulfonyl)-3-(5-isopropylaminomethyl-2-methoxy-phenyl)-2-oxo-2,3-dihydro-1H-indol-3-yl]pyrrolidine-2-dimethylcarboxamide, trifluoroacetic acid salt]",< 1
3,"CNCc1ccc(OC)c(C2(N3CCC[C@H]3C(=O)N(C)C)C(=O)N(S(=O)(=O)c3ccc(C#N)cc3)c3ccc(Cl)cc32)c1 (stereo partly drawn) [Example 102, (S)-1-[5-Chloro-1-(4-cyanobenzenesulfonyl)-3-(2-methoxy-5-methylaminomethyl-phenyl)-2-oxo-2,3-dihydro-1H-indol-3-yl]pyrrolidine-2-dimethylcarboxamide, trifluoroacetic acid salt]",1 to 10
4,"(S)-1-[3-(4-Aminomethyl-2-methoxyphenyl)-5-chloro-1-(4-cyanobenzenesulfonyl)-2-oxo-2,3-dihydro-1H-indol-3-yl]pyrrolidine-2-dimethylcarboxamide, trifluoroacetic acid salt [Example 76]",1 to 10
5,"(S)-1-[3-(4-Aminomethyl-2-methoxyphenyl)-5-chloro-1-(4-fluorobenzenesulfonyl)-2-oxo-2,3-dihydro-1H-indol-3-yl]pyrrolidine-2-dimethylcarboxamide, trifluoroacetic acid salt [Example 75]",10 to 100
6,"(S)-2-({5-Chloro-1-(2,4-dimethoxybenzenesulfonyl)-3-[2-methoxy-4-(4-methyl-piperazin-1-ylmethyl)phenyl]-2-oxo-2,3-dihydro-1H-indol-3-yl}methylamino)-N,N-dimethyl-propionamide [Example 15]",< 1
7,"(S)-2-{[5-Chloro-1-(2,4-dimethoxybenzenesulfonyl)-3-(4-dimethylaminomethyl-2-methoxyphenyl)-2-oxo-2,3-dihydro-1H-indol-3-yl]methylamino}-N,N-dimethyl-propionamide [Example 13]",1 to 10
